The results in this text go back to publication PMC6796659, “Topoisomerase IB poisons induce histone H2A phosphorylation as a response to DNA damage in Leishmania infantum” (International Journal for Parasitology: Drugs and Drug …, 2019).

The test system of test [1] is iRFP L. infantum promastigotes. The test is described as follows: Antileishmanial activity on free-living iRFP L. infantum promastigotes (infrared fluorescence viability). Format: cell-based. Particulars: Leishmania infantum, 72 h, 26 °C. The procedure:
Histone phosphorylation assays were performed in promastigotes of L. infantum BCN 150 strain, whereas the antiparasitic activity of the compounds was assessed on the transgenic strain that constitutively expresses the irfp gene encoding the infrared iRFP protein (iRFP L. infantum strain) ([Calvo-Álvarez et al., 2015]), which is derived from L. infantum BCN 150. Both strains were grown at 26 °C in M-199 medium (Gibco) supplemented with 25 mM HEPES pH 7.2, 0.1 mM adenine, 0.0005% (w/v) hemin, 2 μg/mL biopterin, 0.0001% (w/v) biotin, 10% (v/v) heat-inactivated fetal bovine serum (FBS) and an antibiotic cocktail comprising 50 U/mL penicillin and 50 μg/mL streptomycin.
The antileishmanial activity of the compounds was tested both in promastigotes and in amastigotes infecting mouse splenocytes. For this purpose, 384-well optical bottom black plates (Thermo Scientific) were seeded either with free-living iRFP L. infantum promastigotes or with splenic explants infected with iRFP L. infantum amastigotes, which were incubated at 26 °C or 37 °C, respectively. The viability of both iRFP L. infantum stages was measured by recording the fluorescence emitted by viable cells at 708 nm in an Odyssey (Li-Cor) infrared imaging system after a 72-h period of incubation with different concentrations of the compounds. Dose-response curves were obtained by plotting the infrared fluorescence emission of viable parasites vs. different concentrations of testing compounds and were fitted by nonlinear analysis using the Sigma-Plot 10.0 statistical package. The reduction of infrared emission with respect to the negative control was used to determine the 50% effective concentration to kill the parasites (EC50). Both controls and treated groups were tested with DMSO (drug vehicle) concentrations below 0.1%. All compounds and controls were assayed in triplicate.

The target of another test is T1, human Top IB (hTopIB) (Homo sapiens, UniProt P11387).
T1 construct: made in house
T1 sequence (P11387 1-765): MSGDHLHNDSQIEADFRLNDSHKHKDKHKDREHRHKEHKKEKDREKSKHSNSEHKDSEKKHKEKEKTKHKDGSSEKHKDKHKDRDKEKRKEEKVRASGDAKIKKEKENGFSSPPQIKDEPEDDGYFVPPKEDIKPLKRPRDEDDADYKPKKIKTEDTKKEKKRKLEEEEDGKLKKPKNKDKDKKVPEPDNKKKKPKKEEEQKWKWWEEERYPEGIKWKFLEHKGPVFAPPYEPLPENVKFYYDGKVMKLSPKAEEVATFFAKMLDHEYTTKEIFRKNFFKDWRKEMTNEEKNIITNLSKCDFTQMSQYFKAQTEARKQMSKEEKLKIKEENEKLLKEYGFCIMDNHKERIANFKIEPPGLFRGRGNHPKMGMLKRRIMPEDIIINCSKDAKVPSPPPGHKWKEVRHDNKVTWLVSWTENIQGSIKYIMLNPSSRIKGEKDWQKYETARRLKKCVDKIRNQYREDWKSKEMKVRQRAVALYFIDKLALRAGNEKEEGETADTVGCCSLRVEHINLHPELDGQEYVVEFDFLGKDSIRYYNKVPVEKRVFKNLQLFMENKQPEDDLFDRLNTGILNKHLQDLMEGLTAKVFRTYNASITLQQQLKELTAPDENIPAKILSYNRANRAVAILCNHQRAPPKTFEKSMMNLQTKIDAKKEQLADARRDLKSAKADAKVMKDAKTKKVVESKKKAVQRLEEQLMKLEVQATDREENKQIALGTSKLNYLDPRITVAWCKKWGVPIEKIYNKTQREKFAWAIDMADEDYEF
The test is described as follows: Relaxation of supercoiled pSK DNA by recombinant hTopIB. Format: biochemical. Particulars: Table 1. The protocol:
Expression and purification of LTopIB and hTopIB were carried out according to a previously standardized protocol ([Villa et al., 2003]). The effect of indenoisoquinolines (compounds 1 to 20) on recombinant LTopIB and hTopIB was determined by measuring the relaxation of negatively supercoiled pBluescript-SK DNA plasmid (pSK). Briefly, in a total volume of 20 μL, 100 U of recombinant TopIB were incubated with 0.5 μg of pSK DNA in 10 mM Tris-HCl buffer (pH 7.5), 5 mM MgCl2, 5 mM dithiothreitol (DTT), 0.1 mM EDTA, […] bovine serum albumin, and 150 mM KCl. Different concentrations of indenoisoquinolines were also added. Following a 4-min incubation period at 25 °C, reactions were stopped with 1% (w/v) SDS, and incubated for one extra hour at 37 °C in the presence of 1 mg/mL proteinase K. Subsequently, samples were extracted with 1 vol phenol-chloroform mixture and were loaded on a 1% agarose gel containing 0.1 μg/mL ethidium bromide. The gel was run for 16 h at 4 V/cm, and the images were acquired using a G-Box system (Syngene, United Kingdom).

Test [2] relates to L. infantum promastigotes. The test is described as follows: Cell cycle analysis by flow cytometry (propidium iodide). Particulars: 1 μM single dose, 0, 8, 24, 48 h. Format: cell-based, Leishmania infantum. The procedure:
One million promastigotes untreated or treated with 1 μM of different indenoisoquinolines were harvested by centrifugation after 0, 8, 24 and 48 h exposure. Promastigotes were washed twice with PBS and fixed by 1 h incubation with 70% methanol at 4 °C. After incubation, cells were centrifuged, washed again with PBS and resuspended in 0.5 mL of citrate buffer (45 mM MgCl2, 20 mM MOPS, 30 mM sodium citrate, 0.1% Triton X-100, pH = 7). Finally, samples with RNAase (50 μg/mL) and propidium iodide ([…]) were incubated at 37 °C during 30 min and analyzed at 589 nm by flow cytometry (Cyan ADP Dako).
Background: In flow cytometry, cells or beads pass a laser one at a time.

Test [3] has as its system TopIB-DNA complexes in L. infantum promastigotes. The test is described as follows: SDS/K-DNA precipitation (in situ cleavage complex formation). Format: cell-based, Leishmania infantum. Particulars: highest concentration 30 μM, 30 min, data not shown. The procedure:
In order to measure the fragmentation of DNA induced by Top poisons, L. infantum promastigotes, previously labeled with 0.5 mCi/mL [2–^14C] thymidine for 24 h, were exposed to different concentrations of indenoisoquinolines for 30 min, followed by precipitation with SDS/KCl, according to the method described previously ([Balaña-Fouce et al., 2012]). DNA fragmentation was determined as the percentage of total labeled DNA, and was calculated as follows: [(dpm in SDS/KCl drug - dpm in SDS/KCl solvent)/(dpm total incorporation)] x 100. Each experiment was run at least in triplicate.

What is called EC50 is the concentration that produces a half-maximal response. The molecule `NCCCn1c2c(c3ccccc3c1=O)C(=O)c1ccccc1-2` [Compound 2] came in with an EC50 in test [1] of 0.34 ± 0.03 µM. Further, the hTopIB inhibition entry on human Top IB (hTopIB) is “++ (inhibition at 10 μM)”. Moreover, the “effect on cell cycle of promastigotes” value in test [2] is on record as “did not arrest the cell cycle”. Moreover, in test [3], the “protein-DNA complexes (SDS/K-DNA precipitable)” value came to 10%.
